Columns and labels:
[1] = test system: HEK293-EBNA cells; test: Transient transfection of HEK293-EBNA cells in serum-free suspension culture, expression of soluble TNF receptor p55 (Example 3); format: cell-based, Human
Description: (§1) 1 mg of the compound obtained in Example 2 was dissolved in 500 µl acetonitrile, diluted in 500 µl sterile pure water (1 mg/ml) and stored at 4 °C. 15 µl of a plasmid solution (1 mg/ml) encoding the soluble human tumor necrosis factor receptor p55 gene was transferred into 1.5 ml medium and mixed. Various amounts of the compound obtained in […] was added, mixed and after 10 minutes at room temperature, the mixture was transferred to 15 ml HEK293-EBNA cells in suspension.

[2] = test system: CHO dhfr-; test: Luciferase transfection efficiency, serum-free suspension culture (Example 5); format: cell-based; conditions: soluble cell extract after 24 hours
Description: (§2) 1 mg of the compound obtained in Example 2 was dissolved in 500 µl sterile pure water (1 mg/ml) and stored at 4 °C. 90 mg polyethyleneimine, with a molecular weight of 25 kDa, was dissolved in sterile pure water (0.9 mg/ml), neutralized with HCl, sterile filtered and stored at room temperature.
(§3) 3 µl of a plasmid solution (1 mg/ml) encoding the luciferase gene was diluted in 1.5 ml culture medium and mixed. 2.25 µl compound (1 mg/ml) as described in Example 2 was added, mixed and followed by 8.3 µl PEI (0.9 mg/ml). After mixing and incubation for 10 minutes at room temperature, the mixture was transferred into 15 ml of various cells. Cells which were grown in serum-free suspension culture were transferred into fresh medium before adding the complexes. The luciferase activity was measured in the soluble cell extract after 24 hours incubation and expressed as relative light unit (RLU) per milligram protein.

[3] = test system: Glioma C6; test: as above; format: cell-based; conditions: soluble cell extract after 24 hours
Description: as §2, §3

[4] = test system: BHK 21 Cl; test: as above; format: cell-based; conditions: soluble cell extract after 24 hours
Description: as §2, §3

[5] = test system: HEK293; test: as above; format: cell-based, Human; conditions: soluble cell extract after 24 hours
Description: as §2, §3

[6] = test system: HEK293-EBNA; test: as above; format: cell-based, Human; conditions: soluble cell extract after 24 hours
Description: as §2, §3

[7] = test system: HEK293-EBNA cells; test: Cell viability of transfected HEK293-EBNA cells in serum-free suspension culture (Example 3); format: cell-based, Human; conditions: compound-mediated transfection; serum-free suspension culture of HEK293-EBNA cells
Description: as §1

[8] = as above; format: cell-based, Human; conditions: human, HEK293-EBNA cells in suspension, serum-free suspension culture
Description: as §1

[9] = test system: HEK293-EBNA cells; test: Influence of antibiotics on transient transfection in HL medium, luciferase expression (Example 13); format: cell-based, Human; conditions: control without = 100, compound from Example 2 and PEI
Description: 1 mg of the compound from Example 2 was dissolved in 0.5 ml acetonitrile, mixed for 3-5 minutes at 37 °C, diluted in 0.5 ml sterile, pure water (1 mg/ml) and stored at 4 °C. 90 mg polyethelenimine (PEI), with a molecular weight of 25 kDa, were dissolved in sterile, pure water (0.9 mg/ml), neutralized with HCl, sterile filtered and stored at 4 °C. 3 µl of a plasmid solution (1 mg/ml) encoding the luciferase gene was added to 1.5 ml HL medium (containing 0.3% Primatone RL) and mixed. After 2 minutes incubation at room temperature, 2.25 µl of the compound from Example 2 (1mg/ml) was added and mixed, followed by 8.3 µl PEI (0.9 mg/ml). After mixing and incubation for 15-30 minutes at room temperature, the mixture was transferred into 15 ml of HEK293-EBNA cells containing different antibiotics. Cells which were grown in serum-free suspension culture in HL medium (containing 0.3% Primatone RL and different antibiotics) were transferred into fresh HL medium (containing 0.3% Primatone RL and different antibiotics), then adjusted to 5.5-6 x 10^6 cells/ml before adding the DNA complexes. The luciferase activity was measured in the soluble cell extract after 20-22 hours incubation time and expressed as relative light units per ml culture.

[10] = test system: HEK293-EBNA cells; test: Effect of various compounds on DNA complex formation in DMEM/HAM F12 medium, luciferase expression (Example 11); format: cell-based, Human
Description: 1 mg of the compound from Example 2 was dissolved in 0.5 ml acetonitrile, mixed for 3-5 minutes at 37 °C, diluted in 0.5 ml sterile, pure water (1 mg/ml) and stored at 4 °C. 90 mg polyethelenimine (PEI), with a molecular weight of 25 kDa, were dissolved in sterile, pure water (0.9 mg/ml), neutralized with HCl, sterile filtered and stored at 4 °C.
Different growth promotion compounds were added to 1.5 ml DMEM/HAM F12 medium (without any compounds) and mixed. After 2-3 minutes, 3 µl of a plasmid solution (1 mg/ml) encoding the luciferase gene was added to the 1.5 ml […] and mixed. After 2 minutes incubation at room temperature, 2.25 µl of the compound from Example 2 (1mg/ml) was added and mixed, followed by 8.3 µl PEI (0.9 mg/ml). After mixing and incubation for 15-30 minutes at room temperature, the mixture was transferred into 15 ml of HEK293-EBNA cells. Cells which were grown in serum-free suspension culture in HL medium (containing 0.3% Primatone RL) were transferred into fresh HL medium (containing 0.3% Primatone RL) then adjusted to 5.5-6 x 10^6 cells/ml before adding the DNA complexes. The luciferase activity was measured in the soluble cell extract after 20-22 hours incubation time and expressed as relative light units per ml culture. […]

Compound CCCCCCCC/C=C\CCCCCCCC(=O)OC[C@H](COP(=O)(O)OCCNC(=O)CCSSC[C@@H](NC(=O)[C@H](NC(=O)CNC(=O)[C@@H](C)NC(=O)[C@H](NC(=O)[C@@H](CC(C)C)NC(=O)[C@@H](CCCCN)NC(=O)[C@H](NC(=O)[C@@H](CC(C)C)NC(=O)[C@H](NC(=O)[C@H](NC(=O)CNC(=O)[C@@H](CC(C)C)NC(=O)[C@H]1CCCN1C(=O)[C@@H](C)NC(=O)[C@@H](CC(C)C)NC(=O)[C@H](NC(=O)[C@@H](CO)NC(=O)[C@@H](Cc1c[nH]c2ccccc12)NC(=O)[C@H](NC(=O)[C@@H](CCCCN)NC(=O)[C@@H](CCCNC(=N)N)NC(=O)[C@@H](CCCCN)NC(=O)[C@@H](CCCNC(=N)N)NC(=O)[C@@H](CCC(N)=O)NC(=O)[C@H](N)CCC(N)=O)[C@H](C)CC)[C@H](C)CC)[C@H](C)O)[C@H](C)O)C(C)C)C(C)C)[C@H](C)CC)C(N)=O)OC(=O)CCCCCCC/C=C\CCCCCCCC [Compound, retro-inverso dioleylmelittin] has a TNFRp55 ([1]; Compound 1 µg/ml) of 0.1 ng/mL, a TNFRp55 ([1]; Compound 2 µg/ml) of 0.2 ng/mL and a TNFRp55 ([1]; Compound 4 µg/ml) of 2.5 ng/mL. For the same compound, the TNFRp55 ([1]; Compound 6 µg/ml) was 6.3 ng/mL, the TNFRp55 ([1]; Compound 10 µg/ml) was 83 ng/mL and the Luciferase activity [2] was 1.4 x 10^6 RLU/mg protein. The Luciferase activity [3] was 5.8 x 10^6 RLU/mg protein, the Luciferase activity [4] was 5.2 x 10^5 RLU/mg protein and the Luciferase activity [5] was 1.8 x 10^6 RLU/mg protein. For the same compound, the Luciferase activity [6] was 2.2 x 10^6 RLU/mg protein, the cell toxicity effects [7] was “absence of detectable cell toxicity effects” and the viability at 1 µg/mL ([8]; Compound 1 µg/ml) was 90 to 95%. For the same compound, the viability at 2 µg/mL ([8]; Compound 2 µg/ml) was 90 to 95%, the viability at 4 µg/mL ([8]; Compound 4 µg/ml) was 90 to 95% and the viability at 6 µg/mL ([8]; Compound 6 µg/ml) was 90 to 95%. For the same compound, the viability at 10 µg/mL ([8]; Compound 10 µg/ml) was 90 to 95%.
With C[C@H]1c2cccc(O)c2C(=O)C2=C(O)[C@]3(O)C(=O)C(C(N)=O)=C(O)[C@@H](N(C)C)[C@@H]3[C@@H](O)[C@@H]21 [Doxycycline] the Luciferase activity ([9]; antibiotic 2 µg/ml in HL medium with Primatone RL (0.3%)) was 89%.
Compound CN[C@@H]1[C@@H](O)[C@@H](O[C@@H]2[C@@H](O)[C@H](O[C@H]3O[C@H]([C@@H](C)O)[C@@H](O)[C@H](O)[C@H]3N)[C@@H](N)C[C@H]2N)OC[C@]1(C)O [Geneticin (G-418), Geneticin] has a Luciferase activity ([9]; antibiotic 250 µg/ml in HL medium with Primatone RL (0.3%)) of 93%.
With NC(=O)CC[C@H](N)C(=O)O [Glutamine 200 mM, Glutamine] the “% Increase” value ([10]; additive 1:100, Primatone RL was set as 100 %) was 13% and the Luciferase activity ([10]; additive dilution 1:100 in DMEM/HAM F12, compound from Example 2 and PEI) was 1.06 RLU x 10^9/ml.
Gentamycin showed a Luciferase activity ([9]; antibiotic 50 µg/ml in HL medium with Primatone RL (0.3%)) of 80%.

Source: patent publication EP1182208A2, “Composition for DNA transfection” (Roche Diagnostics GmbH, priority 2000, dated 2002)
